Measured values reported in patent US20250369032A1 (priority 2023, published 2025).

The compounds below were run against alkaline phosphatase (Bos taurus, UniProt P19111) (assay: Solvent screen, visual colour change in PNPP). Details: 200 μL of the solvent into 2 mL of PNPP; 1-hour.
alkaline phosphatase, sequence (P19111 20-506): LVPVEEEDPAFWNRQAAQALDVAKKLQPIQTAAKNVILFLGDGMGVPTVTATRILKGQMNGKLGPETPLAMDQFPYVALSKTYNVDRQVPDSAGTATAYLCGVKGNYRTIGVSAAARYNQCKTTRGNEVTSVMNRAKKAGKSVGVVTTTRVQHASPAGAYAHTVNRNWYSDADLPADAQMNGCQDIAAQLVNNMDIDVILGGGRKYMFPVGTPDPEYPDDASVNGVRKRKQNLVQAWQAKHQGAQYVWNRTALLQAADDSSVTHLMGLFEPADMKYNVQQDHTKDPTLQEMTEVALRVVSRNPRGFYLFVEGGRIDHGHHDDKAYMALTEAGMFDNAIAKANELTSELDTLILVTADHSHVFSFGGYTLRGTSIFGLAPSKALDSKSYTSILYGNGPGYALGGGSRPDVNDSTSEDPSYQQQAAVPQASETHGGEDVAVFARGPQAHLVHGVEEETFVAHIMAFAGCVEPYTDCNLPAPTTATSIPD
Description: The results were not quantified with the spectrophotometer but the color change was visually observed. […] Two different dosing concentrations were evaluated, 10 μL of test chemical added to 90 μL of alkaline phosphatase reaction reagent and 50 μL of test chemical added to 50 μL of alkaline phosphatase reaction reagent; all aliquoted in 96-well plates.

| Compound | color change visually observed |
| --- | --- |
| CC(C)=O [acetone] | brightest yellow intensity |
| C[S+](C)[O-] [dimethyl sulfoxide] | no response (clear) |
| CCO [ethanol] | brightest yellow intensity |
| CO [methanol] | lesser yellow intensity |
